Structures can show the parent of a compound that is named as a salt.
Columns and labels:
[1] = tested on: HSA secretion from HepG2 cells; assay: HSA secretion from HepG2 cells (ELISA of culture media); assay type: cell-based, human; settings: 16-hour incubation, up to the maximum dose of 20 μM
Protocol: (§1) HepG2 cells were treated with compound A at the indicated doses for 16 hours. The concentration in the cell culture media of apoB, apoAI and HSA after the incubation period was measured with the appropriate ELISA assay and normalized to total cell protein. The data shown are expressed as a percentage of the control (DMSO only).
(§2) The human hepatoblastoma cell line, HepG2, was obtained from the American Type Culture Collection (Rockville, Md.; ATCC accession no. 8065). Cultures were maintained at 37° C. in a 5% carbon dioxide atmosphere in T-75 culture flasks with 12 mL of RPMI 1640 medium containing 10% fetal bovine serum (all cell culture media and buffers were obtained from GIBCO Life Technologies, Gaithersburg, Md.). Cells were subcultured 1:4 once a week and fed fresh medium 3 times a week.
(§3) Experiments to measure the effects of compounds A and B on protein secretion were carried out in 48-well plates. HepG2 cells were subcultured 1:2 and allowed to come to confluency at least 24 hours before drug treatment. Before commencement of drug treatment, culture medium was removed, the cells washed once with PBS and 1 mL of fresh medium was added quantitatively. […] The cells were homogenized by trituration with a 1 mL micropipettor, and protein was measured using the Coomassie reagent (Pierce Chemical Co, Rockford, Ill.) as described by the manufacturer. […]

[2] = tested on: TG secretion from HepG2 cells; assay: TG secretion from HepG2 cells (3H-glycerol labelling, extraction, TLC); assay type: cell-based; settings: Homo sapiens, 1.25 μM-20 μM, 3H-glycerol labelling for two hours, read-out: IC50 for inhibition of TG secretion
Protocol: HepG2 cells were treated with Compound A at the indicated doses for […], the last two hours of which were in the presence of 5 μCi/mL 3H-glycerol. The concentration of radiolabelled triglycerides in the cell culture media was measured by quantitative extraction, followed by thin layer chromatography analysis and normalization to total cell protein. The data shown are expressed as a percentage of the control (DMSO only).
HepG2 cells were subcultured into 6-well dishes and allowed to come to confluency at least 24 hours before drug treatment. Prior to addition of the drug, culture media were removed, cells washed once with PBS, and 1 mL of fresh medium (RPMI 1640+10% FBS) was added quatitatively. […]
Total lipids were extracted from the media and analyzed as follows. […] Raw data was normalized to cell protein and expressed as percent of DMSO control.
HepG2 cells were treated with doses of compound A ranging from 1.25 μM-20 μM under conditions identical to those utilized for the apoB, apoAl and HSA secretion experiment. The intracellular pool of TG was radiolabelled for two hours with 3H-glycerol in the presence of vehicle or varying doses of compound A. The accumulation of radiolabelled TG in the medium was measured by quantitative extraction, followed by thin layer chromatography analysis and normalization to total cell protein. […]

[3] = tested on: apoAI secretion from HepG2 cells; assay: ApoAI secretion from HepG2 cells (ELISA of culture media); assay type: cell-based, human; settings: 16-hour incubation, up to the maximum dose of 20 μM
Protocol: as §1, §2, §3

Question: For `O=C1c2ccccc2CN1C1CCN(CCC(c2ccccc2)c2ccccc2)CC1` [compound A, 2-[1-(3,3-diphenylpropyl)-4-piperdinyl]-2,3-dihydro-3-oxo-1H-isoindole hydrochloride], which “secretion of HSA” value [1] is on record?
Answer: unaffected

Question: And the IC50 [2]?
Answer: ~2000 nM

Question: And the “secretion of apoAI” value [3]?
Answer: unaffected

— patent US6492365B1, “Microsomal triglyceride transfer protein” (Bristol-Myers Squibb Company, priority 1992, dated 2002)
